The text below walks through data of patent US12502390B2, “Compositions comprising tigolaner for controlling parasites” ([…], priority 2019, dated 2025).

Where two headings read alike, the source gives them in different places.

Series [1] relates to Ctenocephalides felis. The note with it: rats, application rate 10 mg/kg, cited from earlier work.
In a further series the test system is Rhipicephalus sanguineus. To be noted: Rhipicephalus sanguineus contact test; 1 μg/cm^2; cited from earlier work.
The test system of another series is Dermacentor variabilis. The note with it: rats; day 2; application rate 10 mg/kg; cited from earlier work.
Series [2] concerns Boophilus microplus. The note with it: Boophilus microplus injection test; 20 μg/tick; cited from earlier work.
The test system of series [3] is Amblyomma hebraeum. To be noted: Amblyomma hebraeum contact test; 1 μg/cm^2; cited from earlier work.
The test system of series [4] is Ctenocephalides felis. To be noted: Ctenocephalides felis oral test; 100 ppm; cited from earlier work.
In series [5] the test system is Ctenocephalides felis. The note with it: Ctenocephalides felis contact test; 1 μg/cm^2; cited from earlier work.
For series [6], the system named is Boophilus microplus. To be noted: Boophilus microplus dip test; 100 ppm; cited from earlier work.
A further series has as its system Musca domestica. The note with it: 100 ppm; cited from earlier work.
Series [7] is described as follows: Solubility of tigolaner in solketal (1,2-isopropylideneglycerol). Format: physicochemical. The text has this:
In another embodiment of the composition the solvent component comprises only 1,2-isopropylideneglycerol.

A further series concerns Ixodes ricinus. The note with it: Ixodes ricinus contact test; 1 μg/cm^2; cited from earlier work.
The next series concerns Lucilia cuprina. To be noted: 100 ppm; cited from earlier work.
Series [8] has as its system Amblyomma hebraeum. To be noted: 100 ppm; cited from earlier work.

For the compound `Cn1nc(C(F)(F)C(F)(F)F)c(C(F)(F)F)c1-n1cc(-c2ccc(Cl)c(C(=O)NC3(C#N)CC3)c2)cn1` [Tigolaner], the values for the efficacy against fleas with Ctenocephalides felis [1] (day 2) and in the series on Ctenocephalides felis [1] (day 9) were above 95% and above 90%, respectively. Also, the efficacy with Rhipicephalus sanguineus, in the series with Boophilus microplus [2], with Amblyomma hebraeum [3], with Ctenocephalides felis [4], with Ctenocephalides felis [5] and in the series on Boophilus microplus [6] was 100% throughout. In addition, the efficacy in the series on Musca domestica, in the series on Ixodes ricinus, in the series on Lucilia cuprina and in the series with Amblyomma hebraeum [8] was 100% throughout. In addition, the “efficacy against tick nymphs” value in the series with Dermacentor variabilis is above 90%. For the same compound, the “solubility of tigolaner in solketal in the presence of praziquantel” value in [7] (in the presence of praziquantel, in particular of 7.5 to 8.5% w/w of praziquantel) is recorded as “more than 10.5 % w/w”. Also, in series [7] (presence of lactic acid), the “effect of lactic acid on solubility of tigolaner in 1,2-isopropylideneglycerol” value is recorded as “slightly lowers the solubility”. Also, in series [7] (solketal alone), the “solubility of tigolaner in solketal alone” value is 9.5-9.9 % w/w.
